# According to patent publication US6368788B1 (priority 1987, dated 2002):
# Where “and” joins values, the source holds several entries; their conditions need not be identical. Equal values may be shown once.
# How the values were obtained:
# [1] = tested on: antibody-producing cells in spleen; assay: Antibody plaque forming cell response to sheep red blood cells (Jerne); type: in vivo, (CBAxC57B1/6) F1 mice; details: for PFC/10^6 splenocytes / PFC/Spleen / Spleen weight/Body weight / Splenocytes per Spleen: s-rbc immunized mice, day 5
# [2] = tested on: Influenza A; details: Combined Therapy: Conventional + L-Glu-L-Trp
# Description: A clinical trial was conducted in a group of 588 patients between the ages of 17-21 years all having a confirmed infection with Influenza A, (i.e., confirmation by either hemagglutination-inhibition or the presence of specific viral antigens).
# [3] = Allogeneic skin grafts; parameters: species or system human; details: in vivo
# Description: L-Glu-L-Trp was administered to 17 patients receiving allogeneic skin grafts. 27 patients receiving similar grafts and conventional care served as the control group. L-Glu-L-Trp was administered im as a single daily injection of 50-100 μg on each of 5 consecutive days, or alternatively, intranasally at a dose of 1 μg/kg daily for 5 days. Graft rejection was manifest in 8 of the control patients.
# [4] = tested on: Rauscher MuLV; assay: Anti-viral response to Rauscher MuLV; type: in vivo, mice; details: 50 μg/kg
# Text: Innate mechanisms of anti-viral immunity are important to survival of the host. The Rauscher murine leukemia virus (MuLV) is an example of a highly virulent animal retrovirus infection, first isolated and characterized by Dr. Rauscher from BALB/c mouse tissues in 1962. […] The virus employed in present GLP/blinded study was a murine leukemia complex known to induce progressive erythroleukemia in mice (i.e., Rauscher MuLV and replication-defective Rauscher spleen focus-forming virus). Disease manifested within about 6 days with death by about 50 days. Measurements of splenomegaly, blood reverse transcriptase, virus plaque assays (i.e., XC-plaque assay for viremia using SC-1 host cells) and serum anti-viral antibody titers were used to assess infection. Spleens achieved about 2.0 grams in weight within 21 days of infection, as compared with a normal spleen weights in an uninfected animals of about 0.1 gram.
# Mice were inoculated with Rauscher MuLV complex (0.1 ml/7.8×10^4 PFU/mL) on day 0 and sacrificed on day 21. Test groups were comprised of 10 mice and control groups 6 mice. Control articles included saline and AZT (in drinking water at about 1.25 mg/mouse/day≈63 mg/kg/day/mouse). […] A non-infected group of mice was also sacrificed on day 21 to provide normal control values.
# In EXAMPLE 38, SC-1 cells were originally derived from murine embryos, and XC cells (a rat tumor cell line induced by Rous Sarcoma Virus) were obtained from the ATCC in Rockville, Md.
# [5] = tested on: M. bovis; type: in vivo, mice; details: mouse, in vivo
# [6] = Allergies (hayfever protocol); parameters: species or system human; details: in vivo
# Description: Twenty nine patients (29) with various diagnosed allergies were treated on a daily basis for 5-7 days with L-Glu-L-Trp at a dose of […] delivered im or by the intranasal route. Seventeen patients (17) in the control group received conventional therapy.
# [7] = tested on: lymphocytes; assay: In vitro incubation of pyoderma patients' lymphocytes with 0.01% L-Glu-L-Trp; type: cell-based, human; details: 100 μg/mL in vitro
# [8] = Corneal diseases; details: in vivo
# [9] = tested on: E-RFC; assay: In vitro sheep red blood cell rosette forming response of gastritis patients' T-lymphocytes; type: cell-based, human; details: 22 patients
# Text: Twenty two patients (all men aged 18-30 years) suffering from chronic primary gastritis and gastro-duodenitis were entered into the trial. Diagnosis was based on physical examination, and clinical and laboratory investigations including roentgenoscopy and endoscopic examination of the stomach and duodenum. Patient entry criteria was further conditioned on the results of laboratory tests for i) pre-treatment immune indices (i.e., numbers of lymphocytes, T-, and B-lymphocytes, etc.; TABLE 46) and ii) the in vitro sheep red blood cell rosette forming response of T-lymphocytes to L-Glu-L-Trp, (i.e., whether in vitro incubation of patient peripheral blood lymphocytes with L-Glu-L-Trp increased the percentage of E-RFC). […] These twelve patients were entered into the trial.
# [10] = After Combination L-Glu-L-Trp Therapy
# [11] = After L-Glu-L-Trp Combination Therapy
# 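For B-Lymphocytes in this document: hospitalized children with severe pneumonia, thrombohemorrhagic syndrome plus secondary immune deficiency, lab values taken before and after treatment versus healthy normal controls, comparison group given antibiotic therapy alone.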
# 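For IgA in this document: hospitalized children with severe pneumonia, thrombohemorrhagic syndrome plus secondary immune deficiency, lab values taken before and after treatment versus healthy normal controls, comparison group given antibiotic therapy alone.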
# 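For IgG in this document: hospitalized children with severe pneumonia, thrombohemorrhagic syndrome plus secondary immune deficiency, lab values taken before and after treatment versus healthy normal controls, comparison group given antibiotic therapy alone.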
# 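For IgM in this document: hospitalized children with severe pneumonia, thrombohemorrhagic syndrome plus secondary immune deficiency, lab values taken before and after treatment versus healthy normal controls, comparison group given antibiotic therapy alone.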
substance,measurement,setting,value
L-Glu-L-Trp,Increase of frequency of PFC per 10^6 splenocytes,[1]; 1 μg/kg,2.8 fold
same,Increase of number of PFC in spleen over saline control,[1]; 1 μg/kg,2.7 fold
same,PFCs per spleen vs saline control,[1]; 10 μg/kg,1.8 fold
same,PFCs per spleen vs saline control,[1]; 100 μg/kg,1.6 fold
same,PFC/10^6 splenocytes,[1]; 1 μg/kg,69.2 ± 11.3
same,PFC/Spleen,[1]; 1 μg/kg,11722 ± 2005
same,Spleen weight/Body weight,[1]; 1 μg/kg,0.42 ± 0.01
same,Splenocytes per Spleen,[1]; 1 μg/kg,168.6 ± 3.6 ×10^6
same,PFC/10^6 splenocytes,[1]; 10 μg/kg,48.8 ± 9
same,PFC/Spleen,[1]; 10 μg/kg,7854 ± 1631
same,Spleen weight/Body weight,[1]; 10 μg/kg,0.43 ± 0.01
same,Splenocytes per Spleen,[1]; 10 μg/kg,159 ± 8.5 ×10^6
same,PFC/10^6 splenocytes,[1]; 100 μg/kg,41.7 ± 6
same,PFC/Spleen,[1]; 100 μg/kg,6731 ± 1027
same,Spleen weight/Body weight,[1]; 100 μg/kg,0.44 ± 0.02
same,Splenocytes per Spleen,[1]; 100 μg/kg,162.6 ± 6 ×10^6
same,Increase in T-helper Cells Percentage,[2],17%
same,Length of Required Therapy,[2],7.1 ± 0.3 days
same,Pharyngitis manifestations,[2],3.6 ± 0.3 days
same,Secondary (Pneumonia) Complications,[2],4.0%
same,T-helper/T-suppressor Ratio,[2],2.7
same,Tracheitis manifestations,[2],3.6 ± 0.3 days
same,Clinical outcome,[3],prevented infectious complications and delayed graft rejection
same,Viremia,[4],significantly decreased viremia
same,Survival,[5],significantly increased survival
same,Survival Mean,[5]; ip,39 ± 2 and 36 ± 3 and 30 ± 2 and 33 ± 1 and 31 ± 1 and 28 ± 1
same,Survival Median,[5]; ip,46 ± 10 and 28 ± 3 and 26 ± 1 and 34 ± 3 and 28 ± 1 and 25 ± 1
same,Clinical outcome,[6],disappearance of allergic reactions
same,B-Lymphocytes,[10],0.84 ± 0.06 ×10^9/L
same,B-Lymphocytes % Normal Value,[10],(175%)
same,IgA,[10],67 ± 4.8
same,IgA % Normal Value,[10],(163%)
same,IgG,[10],138 ± 5.6
same,IgG % Normal Value,[10],(97%)
same,IgM,[10],153 ± 6.9
same,IgM % Normal Value,[10],(89%)
same,Leukocytes,[10],11.0 ± 0.01 ×10^9/L
same,Leukocytes % Normal Value,[10],(98%)
same,Lymphocytes,[10],0.36 ± 0.01 ×10^9/L
same,Lymphocytes % Normal Value,[10],(116%)
same,T-Lymphocytes,[10],1.1 ± 0.01 ×10^9/L
same,T-Lymphocytes % Normal Value,[10],(167%)
same,ATIII,[11],85 ± 2.1 % of normal
same,Clotting time (citrated whole blood-recalcified),[11],129 ± 2.3^
same,FDP,[11],96 ± 6.7 µg/mL
same,Fibrinogen Concentration,[11],4.2 ± 0.4 g/L
same,Fibrinolytic Activity,[11],186 ± 11.5 min
same,Hagemann factor dependent fibrinolysis,[11],72 ± 6.8
same,Kaolin-Cephalin clotting time,[11],58 ± 1.2
same,Prothrombin time,[11],22 ± 0.1
same,Thrombotest,[11],33 ± 1.2
same,Whole blood clotting time,[11],465 ± 16.2 s
same,E-RFC,[7],73.3±2.26%
same,OKT4+ lymphocytes,[7],18.2±1.6%
same,OKT8+ lymphocytes,[7],17.9±1.4%
same,Clinical outcome,[8],stimulates regeneration of corneal epithelium and restoration of visual acuity
same,Patients with a positive in vitro response (increased E-RFC),[9],55%
